In patent publication US9212204B2, “Treatment of rett syndrome using glycyl-L-2-methylprolyl-L-glutamic acid” (priority 2011, dated 2015):
Non-standard residues stand in square brackets, D forms with d. Residues, ends and D or L forms follow the SMILES beside them. αMeP = C[C@@]1(C(=O)O)CCCN1

Experiments:
17 month old rats = assay: 8-arm radial maze test, spatial working memory; format: in vivo, rat; details: for Working Correct Choice WCC8-12 across days: 9-day washout
Text: Five months after the original experiment the now 17 month old rats were retested for spatial working memory in a radial arm maze.
The apparatus consists of a central platform communicating with 8 identical arms, each with a food cup at the end of the arm
Rats were partially food-deprived for at least 10 days prior to, and throughout the radial maze procedure.
The maze was assembled and positioned so that the experimenter could clearly observe the rats' behavior from a predetermined location. The experimenter numbered the arms of the maze according to their orientation from one to eight in a clock-wise direction.
On day one the doors were inserted into the arms and each rat was confined in the central platform with 20 food pellets for 5 minutes. […] The following day the rats were allowed five minutes to explore the whole maze. All arms were baited with two food pellets in the food cup located at the end of each arm, and one pellet at both the entrance and middle of each arm. This was repeated for at least five, but up to eight days for rats that explored fewer than eight arms in two consecutive sessions. […] At this point it was decided that one of the old rats that had made only one arm entry on eight of the nine days should be excluded from future testing in this procedure. Otherwise all rats were included regardless of the amount of exploring they performed in pre-training.
30 days before the test (five days after pre-training) the 17 Male Wistar month old rats were implanted (under halothane anesthesia) with sub-cutaneous mini-osmotic pumps (Alzet) to dispense drug continuously for 3 weeks. At the completion of the infusion the pumps were removed and the wounds re-sutured (9-day washout allowed).
3. G-2-MePE low dose (2.4 mg/kg/day) n=13
4. G-2-MePE high dose (12.4 mg/kg/day) n=5
Saline and the low dose groups are comprised of all the rats that received those treatments in phase 1 of this experiment (when the rats were 12 months old) regardless of whether they had the one or three week treatment. One rat in each of the saline and high dose groups have been dropped because of skin tumors.
Working memory testing commenced on the ninth day of washout. Rats received 10 daily training sessions over 12 days. The procedure was the same as for pre-training but only the food cups were baited. Rats had 6 minutes to make up to 16 choices by visiting any of the eight arms. A choice was defined as occurring when all four paws were inside an arm. The experimenter recorded the sequence of arm entries with pen and paper, Sessions were terminated after all eight arms had been entered, 16 choices made, or 6 minutes had elapsed. The time taken to enter all eight arms, when this occurred, was recorded.
An arm choice was considered correct when the rat entered an arm not previously visited. […]

gastrointestinal cells = details: cited from earlier work
[1] = test system: hippocampal slices of heterozygous Shank3-deficient mice; assay: Shank3-deficient mouse model, hippocampal slice electrophysiology; format: in vivo; details: 15 or 60 mg/kg oral b.i.d. for 14 days
Method: 1 to 3 month old wild type and heterozygous Shank3-deficient mice are divided into 4 treatment groups: placebo treated wild-type, placebo treated Shank3-deficient group and two Shank3-deficient G-2-MePE treated groups. The animals are given placebo (water) or G-2-MePE formulated in water administered orally, b.i.d for 14 days. G-2-MePE is administered at two doses: 15 or 60 mg/kg.
Post-mortem, acute hippocampal slices (350 μm) are prepared from mice using a tissue chopper. Slices are maintained and experiments are conducted at 32° C. Slices are perfused with Ringer's solution containing (in mM): NaCl, 125.0; KCl, 2.5; MgSO4, 1.3; NaH2PO4, 1.0; NaHCO3, 26.2; CaCl2, 2.5; glucose, 11.0. The Ringer's solution is bubbled with 95% O2/5% CO2, at 32° C., during extracellular recordings (electrode solution: 3 M NaCl). Slices are maintained for 1 hr prior to establishment of a baseline of field excitatory postsynaptic potentials (fEPSPs) recorded from stratum radiatum in area CA1, evoked by stimulation of the Schaffer collateral-commissural afferents (100 μs pulses every 30 s) with bipolar tungsten electrodes placed into area CA3. Test stimulus intensity is adjusted to obtain fEPSPs with amplitudes that are one-half of the maximal response. The EPSP initial slope (mV/ms) is determined from the average waveform of four consecutive responses. Input-output (I/O) curves are generated by plotting the fEPSP slope versus fiber volley amplitude in low-Mg^2+ (0.1 mM) solution. AMPA receptor-mediated and NMDA receptor-mediated I/O relationships are measured in the presence of ionotropic glutamate receptor antagonists: […] APV (50 μM) and 6-cyano-7-nitroquinoxaline-2,3-dione CNQX (100 μM). Paired-pulse responses are measured with interstimulus intervals of 10 to 200 ms, and are expressed as the ratio of the average responses to the second stimulation pulse to the first stimulation pulse. […]

[2] = test system: hippocampal CA1 neurons of mecp2 null mutant mice; assay: Golgi staining, dendrite morphology in mecp2 knockout mice; format: in vivo, mouse
Method: We assess the effects of G-2-MePE treatment on dendrites. Transgenic mecp2 knockout mice (n=15 to 20) were administered G-2-MePE intraperitoneally at a dose of 20 mg/kg once daily. Following sacrifice dendritic spine density, spine length and aborization were examined after Golgi staining after nine weeks, as per the Table 1 below:
Dendritic length was assessed by distance from the soma of representative hippocampal CA1 neurons from 9 week old male mecp2 null mutant mice treated with either saline (3 neurons analysed from 3 separate mice, n=9) or G-2-MePE (20 mg/kg i.p. 1/day, from week 4; 3 neurons analysed from 3 separate mice, n=9).

[3] = vs placebo treated Shank3-deficient group
[4] = 20 mg/kg i.p. once daily, 9 weeks of age

C[C@@]1(C(=O)N[C@@H](CCC(=O)O)C(=O)O)CCCN1C(=O)CN [Example G-2-MePE, Glycyl-L-2-methylprolyl-L-glutamic acid] (H-Gly-[αMeP]-Glu-OH)
Correct Choice CC8-12 (17 month old rats; all groups, 10 days of testing): no significant group effect
Working Correct Choice WCC8-12 across days (17 month old rats; high dose 12.4 mg/kg/day s.c. 3 weeks): greatest improvement across days
correct maze choices averaged across days (17 month old rats; higher dose, vs vehicle treated rats, p<0.05, FIG. 18B): more correct entries
Working Correct Choice WCC8-12 across days (17 month old rats; low dose 2.4 mg/kg/day s.c. 3 weeks, vs saline): very little difference
degradation by gastrointestinal cells (gastrointestinal cells): not degraded
uptake by gastrointestinal cells (gastrointestinal cells): taken up
AMPA receptor-mediated field potentials [1]: normalizes
average slope of I/O function [1, 3]: increase
hippocampal long-term potentiation (LTP) and its maintenance [1, 3]: increased
dendritic length as a function of distance from the soma ([2]; 20 mg/kg i.p. 1/day from week 4, vs saline, FIG. 24): longer dendrites
dendritic arborization [2, 4]: improved
dendritic spine length [2, 4]: increased
